Entries after “also recorded” stand apart in the source; their conditions may differ. Each block holds one compound with its values, some of them ahead of it.
How the values were obtained:
GST-FKBP12 = GST-FKBP12 (Homo sapiens, UniProt P62942); assay: chymotrypsin coupled PPlase activity assay, FKBP12; assay type: biochemical
GST-Pin1 [1] = target: T1, GST-Pin1 (Homo sapiens, UniProt Q13526); assay: fluorescence polarization (FP) pTide competition assay / FP-HTS
Excerpt: This sequence was optimized for solubility and binding to GST-PPI. […] Measurements of fluorescence polarization and fluorescence absorbance were made in black 384-well plates (Corning) using a Synergy II plate reader. Compounds were transferred to plates using a custom-built Seiko pin-transfer robot at the Institute for Chemistry and Cell Biology at Harvard Medical School. The assay can tolerate up to 10%/o DMSO.
Molecules that compete with pTide for binding to the active site, e.g., Pin1 substrates, were detected under equilibrium conditions. A Z score was used to identify and rank those molecules that were most competitive with pTide (e.g., that have higher binding affinity). A Z score is defined as Z=(x−μ)/σ, where x is a raw score, μ is the mean of the population, and σ is the standard deviation of the population. Molecules with the most negative Z scores represent those with the highest Pin1 binding affinity. The Z′ value for this assay was around 0.70 and was consistent for day-to-day performance, with a coefficient of variation in the range of 4-5%.
A lower value of Ki is indicative of higher association and, accordingly, higher affinity of the substrate to the protein.

GST-Pin1 [2] = target: T1, GST-Pin1; assay: chymotrypsin coupled PPlase activity assay, Pin1; assay type: biochemical
Excerpt: where Km is the Michaelis constant for the used substrate, S is the initial concentration of the substrate in the assay, and the IC50 value is of the inhibitor.

GST-cyclophilin = assay: chymotrypsin coupled PPlase activity assay, cyclophilin
[3] = system: APL cells isolated from hCG-PML-RARα transgenic mice
NB4 cells = assay: APL cell differentiation in NB4 cells (Giemsa, FACS CD14/CD11b); assay type: cell-based, human; details: 72 hours
[4] = system: Pin1 and PML-RARα in NB4 cells; assay: immunoblot of Pin1 and PML-RARα in APL NB4 cells; assay type: cell-based, human; details: for PML-RARα level in APL cells: 72 hours
Protocol: For immunoprecipitation and immunoblotting in the examples below, cells were polyethylenimine (PEI)- or lipofemamine-transfected with 8 μg of various plasmids, incubated in 10 cm dishes for 24 hours, and subsequently treatment with drugs as needed. […] After centrifugation at 13,000 g for 10 minutes, one tenth of the supernatant was stored as input, and the remainder was incubated 12 hours with M2 Flag agarose (Sigma). After brief centrifugation, immunoprecipitates were collected, extensively washed with the aforementioned lysis buffer twice, suspended in 2×SDS sample buffer (100 mM Tris-HCl, pH 6.8, 4% SDS, 5% β-mercaptoethanol, 20% glycerol, and 0.1% bromphenol blue), boiled for 10 minutes, and subjected to immunoblotting analysis. […] After electrophoresis, gel was transferred to nitrocellulose membranes using a semidry transfer cell. The transblotted membrane was washed twice with Tris-buffered saline containing 0.1% Tween 20 (TBST). After blocking with TBST containing 5% bovine serum albumin (BSA) for 1 hour, the membrane was incubated with the appropriate primary antibody (diluted 1:1000) in 2% BSA-containing TBST at 4° C. overnight. After incubation with the primary antibody, the membrane was washed three times with TBST for a total of 30 minutes followed by incubation with horseradish peroxidase (HRP)-conjugated goat anti-rabbit or anti-mouse IgG (diluted 1:2500) for 1 hour at room temperature. After three extensive washes with TBST for a total of 30 minutes, the immunoblots were visualized by enhanced chemiluminescence.

RAR = assay: transactivation of RAR downstream target genes
[5] = system: human normal and breast cancer cell lines; assay: cell growth of human normal and breast cancer cell lines; assay type: cell-based
Protocol: (§1) Absorbance was determined at 570 nm.
To test this possibility, we chose breast cancer as a model due to the substantial oncogenic role of Pin1 in vitro and in vivo.

human APL NB4 cells = assay: NB4 cell growth; assay type: cell-based; details: co-treatment with ATRA
Protocol: as §1

T1 sequence (Q13526 whole entry): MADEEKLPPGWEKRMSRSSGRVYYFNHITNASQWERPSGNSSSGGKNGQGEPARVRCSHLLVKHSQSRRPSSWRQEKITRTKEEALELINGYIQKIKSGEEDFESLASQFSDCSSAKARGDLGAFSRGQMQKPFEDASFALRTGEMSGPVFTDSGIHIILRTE
Sequence of GST-FKBP12 (P62942 whole entry): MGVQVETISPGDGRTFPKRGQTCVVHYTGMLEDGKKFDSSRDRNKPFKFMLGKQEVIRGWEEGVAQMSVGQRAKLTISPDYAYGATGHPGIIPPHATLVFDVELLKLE

Compound: CC1=C(/C=C/C(C)=C/C=C/C(C)=C\C(=O)O)C(C)(C)CCC1 [13cRA, (2Z,4E,6E,8E)-3,7-dimethyl-9-(2,6,6-trimethylcyclohexen-1-yl)nona-2,4,6,8-tetraenoic acid]
inhibition of FKBP12 (GST-FKBP12): did not inhibit
Ki (GST-Pin1 [1]): 1160 nM
binding to Pin1 in FP assay after longer incubation (GST-Pin1 [1]; 24 hours incubation vs 0.5 hours): difference in binding between 13cRA and ATRA disappears after a longer incubation
Z score in FP-HTS (GST-Pin1 [1]; ~8200 compounds screened, competition with pTide): lowest Z score
inhibition of PPlase activity of Pin1 (GST-Pin1 [2]): fully inhibited
Ki (GST-Pin1 [2]; Cheng-Prusoff equation, read-out: Ki from PPlase assay): 2370 nM
inhibition of cyclophilin (GST-cyclophilin): did not inhibit

Compound: O=C(O[C@@H]1Cc2c(O)cc(O)cc2O[C@@H]1c1cc(O)c(O)c(O)c1)c1cc(O)c(O)c(O)c1 [EGCG]
condition of treated mice (toxic effects) ([3]; mouse, in vivo): rather sick
PML-RARα in the bone marrow ([3]; same regimens): effectively reduced PML-RARα
spleen weights ([3]; same regimens): nearly at basal levels
APL cell differentiation (NB4 cells): neither Pin1 inhibitors nor Pin1 KD induced APL cell differentiation
Pin1 degradation in NB4 cells [4]: inhibited Pin1 without degrading it
PML-RARα level in APL cells [4]: dose-dependently reduced PML-RARα

Compound: CCOC(=O)CN1C(=O)c2ccc3c4c(ccc(c24)C1=O)C(=O)N(CC(=O)OCC)C3=O [PiB]
APL cell differentiation (NB4 cells): neither Pin1 inhibitors nor Pin1 KD induced APL cell differentiation
Pin1 degradation in NB4 cells [4]: inhibited Pin1 without degrading it
PML-RARα level in APL cells [4]: dose-dependently reduced PML-RARα

Pin1 binding in FP assay (GST-Pin1 [1]): minimal Pin1 binding
Compound: CCCCCCCOc1cc2c(cc1/C(C)=C/c1ccc(C(=O)O)cc1)C(C)(C)CCS2(=O)=O [Ro-415253]
transactivation of RAR downstream target genes (RAR): suppresses it
effect on the ability of ATRA to induce Pin1 degradation or inhibit cell growth ([5]; breast cancer cells (T47D)): no obvious effects
restoration of ATRA-mediated Pin1 degradation ([4]; co-treatment with ATRA): unable to restore ATRA-mediated Pin1 degradation
rescue of NB4 cell proliferation suppressed by ATRA (human APL NB4 cells): unable to rescue NB4 cell proliferation suppressed by ATRA

Compound: COc1cc(C)c(/C=C/C(C)=C/C=C/C(C)=C/C(=O)O)c(C)c1C [acitretin]
Pin1 binding in FP assay (GST-Pin1 [1]): moderate binding

Compound: C=C(c1ccc(C(=O)O)cc1)c1cc2c(cc1C)C(C)(C)CCC2(C)C [bexarotene]
Pin1 binding in FP assay (GST-Pin1 [1]): marginal binding; also recorded: less potent than ATRA

Pin1 binding in FP assay (GST-Pin1 [1]): less potent than ATRA
Compound: CC1=C(/C=C/C(C)=C/C=C/C(C)=C/C(=O)Nc2ccc(O)cc2)C(C)(C)CCC1 [fenretinide]

Compound: O=C(O)Cc1c[nH]c2ccccc12 [indo-3-acetic acid]
Pin1 binding in FP assay (GST-Pin1 [1]): neither pravastatin nor indo-3-acetic acid demonstrated any binding

Compound: Clc1cccc(C(c2ccc3[nH]cnc3c2)n2ccnc2)c1 (stereo not drawn) [liarazole]
combination effect with ATRA on inhibition of cell proliferation ([5]; AU565 or SKBR3 cells): generally additive effects with ATRA

Pin1 binding in FP assay (GST-Pin1 [1]): totally inactive
Compound: CC1=C(/C=C/C(C)=C/C=C/C(C)=C/C=O)C(C)(C)CCC1 [retinal]

Pin1 binding in FP assay (GST-Pin1 [1]): totally inactive
Compound: CC1=C(/C=C/C(C)=C/C=C/C(C)=C/CO)C(C)(C)CCC1 [retinol]

Pin1 binding in FP assay (GST-Pin1 [1]): totally inactive
Compound: CC(=O)OC/C=C(C)/C=C/C=C(C)/C=C/C1=C(C)CCCC1(C)C [retinyl acetate]

Pin1 binding in FP assay (GST-Pin1 [1]): moderate binding
Compound: CC1(C)CCC(C)(C)c2cc(NC(=O)c3ccc(C(=O)O)cc3)ccc21 [tamibarotene]

Reference: patent US20170112792A1, “ENHANCED ATRA-RELATED COMPOUNDS DERIVED FROM STRUCTURE-ACTIVITY RELATIONSHIPS AND MODELING FOR INHIBITING PIN1” (Beth Israel Deaconess Medical Center, Inc., priority 2014, published 2017)
